Numbering of substitutions follows the chain as printed. Where two headings read alike, the source gives them in different places.
Legend:
Format in all cases: cell-based
[1] = system: LNCaP FGC cells; test: Inhibition of proliferation of LNCaP cells (WST-8)
Description: The cells were cultured in a cell culture incubator with 5% CO2 at 37° C. overnight. […] On the sixth day, 96 well plates were taken out, and 20 μL of WST-8 (Beytime, C0040) reagent was added to each well.

[2] = biological target: T1, AR protein (Homo sapiens, UniProt P10275, T878A); test: Degradation of AR protein in LNCaP cells (Western blot); conditions: for inhibition at 0.01 µM: read-out: Degradation rates of the AR protein in LNCaP cells, 10 nM (%); for inhibition at 0.1 µM: read-out: Degradation rates of the AR protein in LNCaP cells, 100 nM (%)
T1 construct: degradation activity of the compounds disclosed in the present disclosure on AR protein in LNCaP cells; host or cells: LNCaP FGC
T1 sequence (P10275 1-920 T878A): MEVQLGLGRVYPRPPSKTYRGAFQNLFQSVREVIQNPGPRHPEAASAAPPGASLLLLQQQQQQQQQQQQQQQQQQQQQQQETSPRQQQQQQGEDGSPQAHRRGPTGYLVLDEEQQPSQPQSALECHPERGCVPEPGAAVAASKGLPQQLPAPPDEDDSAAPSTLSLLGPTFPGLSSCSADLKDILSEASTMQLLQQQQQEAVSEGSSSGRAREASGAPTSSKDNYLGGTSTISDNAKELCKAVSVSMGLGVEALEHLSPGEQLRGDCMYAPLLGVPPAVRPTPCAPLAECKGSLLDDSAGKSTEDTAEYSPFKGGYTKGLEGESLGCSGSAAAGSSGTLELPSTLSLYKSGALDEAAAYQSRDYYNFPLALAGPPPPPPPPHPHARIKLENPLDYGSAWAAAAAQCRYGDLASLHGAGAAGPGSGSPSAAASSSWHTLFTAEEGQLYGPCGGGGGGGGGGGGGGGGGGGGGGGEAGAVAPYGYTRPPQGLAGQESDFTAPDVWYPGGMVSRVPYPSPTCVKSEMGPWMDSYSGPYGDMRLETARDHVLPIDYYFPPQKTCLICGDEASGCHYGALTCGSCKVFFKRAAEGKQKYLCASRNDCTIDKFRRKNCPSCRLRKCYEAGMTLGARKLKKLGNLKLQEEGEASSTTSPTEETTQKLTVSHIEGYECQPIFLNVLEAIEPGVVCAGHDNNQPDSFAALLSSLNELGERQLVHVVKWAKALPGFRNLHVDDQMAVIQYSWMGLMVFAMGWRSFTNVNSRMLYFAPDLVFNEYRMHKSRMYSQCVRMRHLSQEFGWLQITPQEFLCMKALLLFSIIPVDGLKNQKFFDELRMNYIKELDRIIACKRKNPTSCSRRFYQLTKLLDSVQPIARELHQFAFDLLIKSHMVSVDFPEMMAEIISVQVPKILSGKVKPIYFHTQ
Description: The degradation activity of the compounds disclosed in the present disclosure on AR protein in LNCaP cells (cell source: ATCC)
(§1) Corresponding solvent controls were also set and cultured for 8 hours. After 8 hours of cultivation, the culture medium was removed and the cells were washed with PBS. RIPA lysis buffer containing 1% Protease Inhibitor Cocktail was added, and the total protein extract was obtained by lysis and centrifugation. The protein concentration in the extract was detected by BCA method. Protein electrophoresis was performed using SDS-PAGE, followed by transfer of the protein onto a PVDF (Millipore Sigma catalog No. PSRP010R5) membrane at 100V constant voltage for 60 minutes. The PVDF membrane was then placed in a 1×TBST solution with 5% milk and blocked at room temperature for 1 hour. […] The primary antibody solution was discarded and the PVDF membrane was washed three times with 1×TBST for 5 minutes/time. […] The secondary antibody solution was discarded and the PVDF membrane was washed three times with 1×TBST for 5 minutes/time. Western blot imaging was performed by using a dual color infrared laser imaging system (Licor catalog No. Odyssey CLX). Bands were analyzed in grayscale using Image Studio software. For each sample, GAPDH protein bands were detected as internal reference. The degradation rates of the AR protein for the compounds and the positive control sample were calculated based on grayscale of the protein bands.

[3] = biological target: T2, AR protein (Homo sapiens, UniProt P10275); test: Degradation of AR protein in VCaP cells (Western blot); conditions: 8 hours; for inhibition at 0.01 µM: compound at 10 nM, read-out: Degradation rate of the AR protein in VCaP cells, 10 nM (%); for inhibition at 0.1 µM: compound at 100 nM, read-out: Degradation rate of the AR protein in VCaP cells, 100 nM (%)
T2 construct: degradation activity of the compounds disclosed in the present disclosure on AR protein in VCaP cells; host or cells: VCaP
T2 sequence (P10275 1-920): T1 sequence (P10275 1-920 T878A) with A878T
Description: The degradation activity of the compounds disclosed in the present disclosure on AR protein in VCaP cells (cell source: ATCC)
as §1

[4] = LNCaP FGC cells, 96 hours, WST-8 absorbance at 450 nm, read-out: IC50 for inhibiting the proliferation of LNCaP cells
[5] = Homo sapiens, LNCaP, 96 h, read-out: IC50 for inhibiting the proliferation of LNCaP cells, LNCaP FGC cells, 96 hours, WST-8 absorbance at 450 nm
[6] = Homo sapiens, LNCaP, 96 h, LNCaP FGC cells, 96 hours, WST-8 absorbance at 450 nm, read-out: IC50 for inhibiting the proliferation of LNCaP cells
[7] = LNCaP cells, compound 10 nM, 8 hours, Western blot grayscale, GAPDH internal reference
[8] = LNCaP cells, compound 100 nM, 8 hours, Western blot grayscale, GAPDH internal reference

Question: For CC1(CN2CC3(CCc4cc5c(cc4O3)CN(C3CCC(=O)NC3=O)C5=O)C2)CCN(c2ccc(C(=O)N[C@H]3CC[C@H](Oc4ccc(C#N)c(Cl)c4)CC3)nn2)CC1 (stereo partly shown) [Compound 12], which IC50 [1, 4] is on record?
Answer: Its IC50 is 0.73 µM.

Question: CC1(CN2CCC3(CCc4cc5c(cc4O3)C(=O)N(C3CCC(=O)NC3=O)C5=O)CC2)CCN(C(=O)c2ccc(N3C(=S)N(c4ccc(C#N)c(C(F)(F)F)c4)C(=O)C3(C)C)cc2F)CC1 (stereo not shown) [Compound 108] was tested. Which IC50 [1, 5] did it give?
Answer: The IC50 was 10.4 µM.

Question: CC1(C)C(=O)N(c2ccc(C#N)c(C(F)(F)F)c2)C(=S)N1c1ccc(C(=O)N2CCC(CN3CCC4(CC3)COc3cc5c(cc3O4)CN(C3CCC(=O)NC3=O)C5=O)CC2)c(F)c1 (stereo not shown) [Compound 111] was tested. Which IC50 [1, 5] did it give?
Answer: The IC50 was 5.72 µM.

Question: For CC1(C)C(=O)N(c2ccc(C#N)c(C(F)(F)F)c2)C(=S)N1c1ccc(C(=O)N2CC3(CC(N4CCC5(CC4)COc4cc6c(cc4C5)C(=O)N(C4CCC(=O)NC4=O)C6=O)C3)C2)c(F)c1 (stereo not shown) [Compound 115], which IC50 [1, 5] is on record?
Answer: Its IC50 is 10.8 µM.

Question: Which IC50 [1, 5] does the source give for CC1(C)C(=O)N(c2ccc(C#N)c(C(F)(F)F)c2)C(=S)N1c1ccc(C(=O)N2CC3(CCC(N4CCC5(CCc6cc7c(cc6O5)C(=O)N(C5CCC(=O)NC5=O)C7=O)CC4)CC3)C2)c(F)c1 (stereo not shown) [Compound 117] here?
Answer: The IC50 was 2.57 µM.

Question: Which IC50 [1, 5] does the source give for CC1(C)C(=O)N(c2ccc(C#N)c(C(F)(F)F)c2)C(=S)N1c1ccc(C(=O)N2CCC(CN3CC4(CCc5cc6c(cc5O4)C(=O)N(C4CCC(=O)NC4=O)C6=O)C3)CC2)c(F)c1 (stereo not shown) [Compound 119] here?
Answer: The IC50 was 4.11 µM.

Question: CC1(C)C(=O)N(c2ccc(C#N)c(C(F)(F)F)c2)C(=S)N1c1ccc(C(=O)N2CCC3(CC2)CC(N2CCC4(CC2)COc2cc5c(cc24)C(=O)N(C2CCC(=O)NC2=O)C5=O)C3)c(F)c1 (stereo not shown) [Compound 122] was tested. Which IC50 [1, 5] did it give?
Answer: The IC50 was 13.7 µM.

Question: With CC1(C)C(=O)N(c2ccc(C#N)c(C(F)(F)F)c2)C(=S)N1c1ccc(C(=O)N2CC[C@@H](CN3CCC4(CC3)COc3cc5c(cc3C4)C(=O)N(C3CCC(=O)NC3=O)C5=O)C2)c(F)c1 (stereo partly shown) [Compound 126] as the compound, how does the IC50 ([1]; read-out: IC50 for inhibiting the proliferation of LNCaP cells, LNCaP FGC cells, 96 hours, WST-8 absorbance at 450 nm) read?
Answer: The IC50 was 4.06 µM.

Question: Which IC50 [1, 6] does the source give for CC1(C)C(=O)N(c2ccc(C#N)c(C(F)(F)F)c2)C(=S)N1c1ccc(C(=O)N2CC[C@@H](CN3CCC4(CCc5cc6c(cc5O4)C(=O)N(C4CCC(=O)NC4=O)C6=O)CC3)C2)c(F)c1 (stereo partly shown) [Compound 127] here?
Answer: Its IC50 is 6.28 µM.

Question: How did the IC50 [1, 6] turn out when CC1(C)C(=O)N(c2ccc(C#N)c(C(F)(F)F)c2)C(=S)N1c1ccc(C(=O)N2CC(CN3CCC4(CC3)COc3cc5c(cc3C4)C(=O)N(C3CCC(=O)NC3=O)C5=O)C2)c(F)c1 (stereo not shown) [Compound 128] was run?
Answer: The IC50 was 4.16 µM.

Question: CC1(C)C(=O)N(c2ccc(C#N)c(C(F)(F)F)c2)C(=S)N1c1ccc(C(=O)N2CCC3(CCC(N4CCC5(CCc6cc7c(cc6O5)C(=O)N(C5CCC(=O)NC5=O)C7=O)CC4)CC3)C2)c(F)c1 (stereo not shown) [Compound 129] was tested. Which IC50 [1, 6] did it give?
Answer: Its IC50 is 3.63 µM.

Question: N#Cc1ccc(O[C@H]2CC[C@H](NC(=O)c3ccc(N4CCC(F)(CN5CCC6(CCc7ccc8c(c7O6)CN(C6CCC(=O)NC6=O)C8=O)CC5)CC4)nn3)CC2)cc1Cl (stereo partly shown) [Compound 132] was tested. Which IC50 [1, 4] did it give?
Answer: Its IC50 is 4.35 µM.

Question: COC1(CN2CCC3(CCc4ccc5c(c4O3)CN(C3CCC(=O)NC3=O)C5=O)CC2)CCN(c2ccc(C(=O)N[C@H]3CC[C@H](Oc4ccc(C#N)c(Cl)c4)CC3)nn2)CC1 (stereo partly shown) [Compound 133] was tested. Which IC50 [1, 4] did it give?
Answer: Its IC50 is 23.7 µM.

Question: How did the IC50 [1, 6] turn out when CC1(CN2CCC3(CCc4ccc5c(c4O3)CN(C3CCC(=O)NC3=O)C5=O)CC2)CCN(c2ccc(C(=O)N[C@H]3CC[C@H](Oc4ccc(C#N)c(Cl)c4)CC3)nn2)CC1 (stereo partly shown) [Compound 151] was run?
Answer: The IC50 was 72.7 µM.

Question: What does the source list for COc1cc(O[C@H]2CC[C@H](NC(=O)c3ccc(N4CCC(C)(CN5CCC6(CC5)COc5c6ccc6c5C(=O)N(C5CCC(=O)NC5=O)C6=O)CC4)nn3)CC2)ccc1C#N (stereo partly shown) [Compound 180]?
Answer: inhibition at 0.01 µM [2, 7]: 12%; inhibition at 0.1 µM [2, 8]: 53%; inhibition at 0.01 µM [3]: 29%; inhibition at 0.1 µM [3]: 73%

Question: Which inhibition at 0.01 µM ([2]; LNCaP, 8 h) does the source give for N#Cc1ccc(O[C@H]2CC[C@H](NC(=O)c3ccc(N4CC(N5CCC6(CC5)COc5c6ccc6c5CN(C5CCC(=O)NC5=O)C6=O)C4)nn3)CC2)cc1Cl (stereo partly shown) [Compound 183] here?
Answer: The inhibition at 0.01 µM was 40%.

Question: What about the inhibition at 0.1 µM ([2]; LNCaP, 8 h) of the same compound?
Answer: Its inhibition at 0.1 µM is 51%.

Question: What about the inhibition at 0.01 µM [3] of the same compound?
Answer: The inhibition at 0.01 µM was 75%.

Question: What about the inhibition at 0.1 µM [3] of the same compound?
Answer: Its inhibition at 0.1 µM is 84%.

Question: CC1(CN2CCC3(CC2)COc2c(ccc4c2C(=O)N(C2CCC(=O)NC2=O)C4)C3)CCN(c2ccc(C(=O)NC3CCC(Oc4ccc(C#N)c(Cl)c4)CC3)nn2)CC1 (stereo not shown) [Compound 187] was tested. Which IC50 [1, 6] did it give?
Answer: The IC50 was 0.39 µM.

Question: N#Cc1ccc(O[C@H]2CC[C@H](NC(=O)c3ccc(N4CCC(N5CCC6(CC5)COc5c(ccc7c5C(=O)N(C5CCC(=O)NC5=O)C7)C6)CC4)nn3)CC2)cc1Cl (stereo partly shown) [Compound 189] was tested. Which inhibition at 0.01 µM ([2]; LNCaP, 8 h) did it give?
Answer: The inhibition at 0.01 µM was 42%.

Question: What about the inhibition at 0.1 µM ([2]; LNCaP, 8 h) of the same compound?
Answer: The inhibition at 0.1 µM was 57%.

Question: What about the IC50 [1, 5] of the same compound?
Answer: The IC50 was 26.9 µM.

Question: CC1(CN2CCC3(CC2)COc2c3ccc3c2CN(C2CCC(=O)NC2=O)C3=O)CCN(c2ncc(C(=O)N[C@H]3CC[C@H](Oc4ccc(C#N)c(Cl)c4)CC3)cn2)CC1 (stereo partly shown) [Compound 193] was tested. Which inhibition at 0.01 µM [2, 7] did it give?
Answer: The inhibition at 0.01 µM was 18%.

Question: And the inhibition at 0.1 µM [2, 8]?
Answer: Its inhibition at 0.1 µM is 31%.

Question: And the inhibition at 0.01 µM [3]?
Answer: The inhibition at 0.01 µM was 21%.

Question: And the inhibition at 0.1 µM [3]?
Answer: The inhibition at 0.1 µM was 78%.

Question: For N#Cc1ccc(O[C@H]2CC[C@H](NC(=O)c3cnc(N4CCC5(CC4)COc4c5ccc5c4CN(C4CCC(=O)NC4=O)C5=O)nc3)CC2)cc1Cl (stereo partly shown) [Compound 201], which inhibition at 0.01 µM [2, 7] is on record?
Answer: The inhibition at 0.01 µM was 6%.

Question: And the inhibition at 0.1 µM [2, 8]?
Answer: The inhibition at 0.1 µM was 32%.

Question: And the inhibition at 0.01 µM [3]?
Answer: The inhibition at 0.01 µM was -11%.

Question: And the inhibition at 0.1 µM [3]?
Answer: The inhibition at 0.1 µM was 32%.

From US20260234157A1, “COMPOUND AND METHOD FOR TARGETED DEGRADATION OF ANDROGEN RECEPTOR” (Gan & Lee Pharmaceuticals Co., Ltd., priority 2023, published 2026)
